# Experimental data published in patent US8097650B2, “Method of treating a condition associated with phosphorylation of TASK-1” (The Trustees of Columbia University In The City of New York, priority 2005, dated 2012).
# Key:
# [1] = test system: TASK-1; experiment: C-PAF-sensitive TASK-1 current in mouse ventricular myocytes dialyzed with PKCε peptides; format: cell-based; conditions: modified Tyrode's (high K+), scrambled peptide in pipette
# Procedure: (§1) Mouse ventricular myocytes were isolated using a retrograde coronary perfusion method previously published (Kuznetsov V et al. (1995) Circ Res 76: 40-52). All the experiments were carried out according to the guidelines issued by the IACUC of Columbia University. Adult mice 2 or 3 months old, were anaesthetized with a xylazine and ketamine mix and heparinized, the heart was quickly removed and the ascending aorta was connected to the outlet of a Langendorff column and perfused with 20-25 ml of a buffer solution (37° C.) containing (mM):NaCl, 112; KCl, 5.4; NaHCO3, 4.2; MgCl2, 1.6; HEPES, 20; glucose, 5.4; NaH2PO4, 1.7; taurine, 10; L-glutamine, 4.1; MEM amino acids solution, 2%; MEM vitamin solution, 1%; adjusted to pH 7.4, and equilibrated with 100% O2. Next, the heart was perfused with an enzyme solution containing collagenase (0.2 mg/ml; Worthington Type II) and trypsin (0.04 mg/ml) at 35° C. for 10-12 min. After this perfusion, the atria were removed and the ventricles minced and transferred to a 50 ml flask with an enzyme solution containing collagenase (0.45 mg/ml), trypsin (0.08 mg/ml), Ca^2+ (0.75 mM) and bovine serum albumin (BSA; 4.8 mg/ml). The flask was shaken vigorously for 5-10 min at 32° C. before the supernatant was removed and the cells were collected by centrifugation, this operation was repeated two or three times and additional disaggregated cells were collected. After centrifugation, the myocytes were resuspended in the buffer solution containing Ca^2+ (0.75 mM) and BSA and stored at room temperature until use. Rod-shaped, Ca^2+-tolerant myocytes, obtained with this procedure, were used within 6 h of dissociation. Measurements were performed only on quiescent myocytes with clear striations
# The myocyte suspension or the coverslip with CHO cells was placed into a perfusion chamber, mounted on the stage of an inverted microscope. Unless otherwise indicated, CHO cells were superfused at room temperature with standard external Tyrode's buffer, containing (mM): NaCl, 140; KCl, 5.4; CaCl2, 1; MgCl2, 1; HEPES, 5; glucose, 10; adjusted to pH 7.4. Recordings were begun after the current reached a stable baseline (usually 3 to 4 min after initial cell rupture). In myocytes, TASK-1 current is small and exists in the presence of numerous larger K^+ currents. […] Membrane potential and current were measured in the whole cell configuration using borosilicate glass pipettes with a tip resistance between […] and filled with a pipette solution containing (mM): aspartic acid, 130; KOH, 146; NaCl, 10; CaCl2, 2; EGTA, 5; HEPES, 10; MGATP, 2; pH 7.2. […] Myocytes treated with the peptides were monitored continuously beginning immediately after rupture to detect the occurrence of any arrhythmias during dialysis of the peptide. […]
# [2] = test system: murine TASK-1; experiment: TASK-1 current expressed in CHO cells (whole-cell ramp clamp); format: cell-based, mouse
# In short: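 CHO cells transiently expressing murine TASK-1, with GFP or CD8 used to identify transfected cells, were studied 48 h after transfection. Whole-cell ramp-clamp recording at room temperature in Tyrode's pH 7.4 with a K-aspartate pipette solution. Records were corrected for a −9.8 mV junction potential and given as mean±SEM.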
# [3] = test system: mouse ventricular myocytes; experiment: Repolarization abnormalities in mouse ventricular myocytes paced at 1 Hz with PKCε peptides; format: cell-based
# Procedure: as §1
# The myocyte suspension or the coverslip with CHO cells was placed into a perfusion chamber, mounted on the stage of an inverted microscope. Unless otherwise indicated, CHO cells were superfused at room temperature with standard external Tyrode's buffer, containing (mM): NaCl, 140; KCl, 5.4; CaCl2, 1; MgCl2, 1; HEPES, 5; glucose, 10; adjusted to pH 7.4. Recordings were begun after the current reached a stable baseline (usually 3 to 4 min after initial cell rupture). In myocytes, TASK-1 current is small and exists in the presence of numerous larger K^+ currents. In order to increase the inward component of TASK-1 current and to block other potassium currents in myocytes, a modified high K^+ external solution (modified Tyrode's) was used to reduce outward rectification of TASK-1 current. The composition of this solution-was (in mM): NaCl, 100; KCl, 50; CaCl2, 1; MgCl2, 1; HEPES, 5; glucose, 10; tetraethylammonium (TEA), 1; CsCl, 5; adjusted to pH 7.4. Membrane potential and current were measured in the whole cell configuration using borosilicate glass pipettes with a tip resistance between […] and filled with a pipette solution containing (mM): aspartic acid, 130; KOH, 146; NaCl, 10; CaCl2, 2; EGTA, 5; HEPES, 10; MGATP, 2; pH 7.2. The stock solutions of C-PAF and of the PKC inhibitor, bisindolylmaleimide (BIM-I; Calbiochem), were prepared in water and diluted to the final concentrations in Tyrode's or modified Tyrode's, as appropriate. The PKC activator, PMA, was prepared in DMSO and then diluted in Tyrode's. […] Myocytes treated with the peptides were monitored continuously beginning immediately after rupture to detect the occurrence of any arrhythmias during dialysis of the peptide. Application of C-PAF to cells treated with the inhibitor peptide was started after the peptide had been permitted to dialyse into the cell (8-10 min after rupture for CHO or 10-12 min after rupture for myocytes).
# The current and the voltage protocols were generated using Clampex 8.0 software applied by means of an Axopatch 200-B and a Digidata 1200 interface (Axon Instruments). In current clamp mode, for recording action potentials, the signals were filtered at 1 KHz (low pass Bessel filter) and acquired at a sampling rate of 5 KHz. […]
smiles,measurement,setting,value
"CCCCCCCCCCCCCCCCOC[C@H](COP(=O)([O-])OCC[N+](C)(C)C)OC(=O)NC [C-PAF, carbamyl-platelet-activating factor]",reversal potential of C-PAF-sensitive current,[1],−26.1±1.9 mV
same,TASK-1 current density in the presence of drug,"[2]; +30 mV, C-PAF 185 nM or PMA 100 nM, no peptide",60.2±14.3 pA/pF
same,inhibition of TASK-1 current,"[2]; +30 mV, PMA 100 nM (n=17), C-PAF 185 nM (n=20)",12.1±1.0%
same,time for decrease in TASK-1 current to reach steady state,[2]; C-PAF 185 nM,≤ 2 min
same,decrease in the mean current density,"[2]; C-PAF 185 nM, +30 mV, n=9",12%
same,effect on expressed TASK-1 current,"[2]; C-PAF 185 nM, Example 1",reduced
same,TASK-1 current density after drug,"[2]; PKCε-inhibitor peptide 100 nM in pipette, C-PAF 185 nM or PMA 100 nM",25.4±12.4 pA/pF
same,"I-V relation after washout, deviation from control value",[2]; after washout of C-PAF 185 nM,≤ 5%
same,C-PAF inhibition of TASK-1 current,"[2]; modified Tyrode's, elevated K+",10.2±1.8%
same,C-PAF-induced inhibition of TASK-1,[2]; scrambled peptide in pipette,8.4±1.5%
same,cells with repolarization abnormalities,"[3]; C-PAF 2 min, no peptide in pipette",5 of 7
same,repolarization abnormalities,"[3]; C-PAF, PKCε-specific inhibitor peptide 100 nM in pipette",failed to induce repolarization abnormalities in any of the 8 cells
same,cells with abnormalities during repolarization,"[3]; C-PAF, scrambled peptide 100 nM in pipette",14 of 19
